# According to paper PMC10742472, “Synthesis and Characterisation of Platinum(II) Diaminocyclohexane Complexes with Pyridine Derivatives as Anticancer Agents” (International Journal of Molecular Sciences, 2023):
# Experiments:
# U87 (Glioblastoma) = assay: MTT cytotoxicity assay, U87; format: cell-based; conditions: 72 h exposure
# Calf-thymus DNA (ctDNA) = assay: Fluorescent intercalator displacement (FID) ctDNA binding assay with ethidium bromide; parameters: Ka (binding coefficient) / KF (binding constant for fluorescence) / Kq (bimolecular quenching constant) / KSV (Stern–Volmer quenching constant): unit not given here; conditions: 75 µM ethidium bromide, 150 µM ctDNA, pH 7.0
# Method: To achieve this, the fluorescent signal of a DNA intercalator, in this case, ethidium bromide (EtBr), is measured as increasing concentrations of PC are added. As the PC displaces the EtBr, the fluorescence of the mixture is diminished, and the DNA binding capacity of the complex can be calculated from the fluorescence measurement. Calf-thymus DNA (ctDNA) was used and saturated with EtBr. The change in fluorescence is monitored as the complex is titrated into this solution. Once the decrease in fluorescence plateaued, the titration was ended. […] The fluorescence was measured from 550-750 nm and excited at 480 nm. Importantly, the cuvette was inverted four times, and the solution was incubated for 3 min after the addition of […] to allow adequate time for the PCs to interact with the DNA before scanning. […] A plot of F0/F against [PC] using experimental values allowed the determination of Kq and KSV from the slope as per Equation (5). (5) […] where n is the number of ethidium ligands that are displaced per PC. It is important to note that this expression is a simplification of the true binding interaction, as it ignores the effect of EtBr on the binding equilibrium. […] A plot of Log10[(F0 - F)/F)] against Log10[PC] was used to determine KF and n from the intercept and slope, respectively.
# MCF10A (Breast, Normal) = assay: MTT cytotoxicity assay, MCF10A non-cancer breast cells; format: cell-based; conditions: 72 h exposure
# HT29 (Colon) = assay: MTT cytotoxicity assay, HT29; format: cell-based; conditions: 72 h exposure
# MIA (Pancreas) = assay: MTT cytotoxicity assay, MIA; format: cell-based; conditions: 72 h exposure
# BE2-C (Neuroblastoma) = assay: MTT cytotoxicity assay, BE2-C; format: cell-based; conditions: 72 h exposure
# [1] = format: physicochemical
# Method: Lipophilicity was calculated using RP-HPLC. A stock solution of each PC was injected at different isocratic ratios ranging from 70–90% solvent B (organic) at a flow rate of 1 mL·min^−1 [32, 33, 34]. The complexes have low solubility in water, often requiring DMSO to make concentrated solutions. Yet the LogK’ calculated using these experimental data indicated high lipophilicity, which is typical for 2+ charged complexes. […] When heat was applied, they would not precipitate out of the solution after cooling. This confirmed that a lack of persistence was the cause of the “observed” low solubility in H2O. […] Their increased lipophilicity may indicate they have the potential to be administered orally, a characteristic usually associated with Pt(IV) complexes. Other factors, such as stability and cellular absorption, would need to be considered before the potential of these Pt(II) anticancer agents could be evaluated.
# Lipophilicity was evaluated using RP-HPLC, whereby LogKw is calculated by injecting a stock solution of the PC at different isocratic ratios ranging from 70–90% solvent B (organic) at a flow rate of 1 mL·min^−1. An Agilent Technologies 1260 Infinity machine equipped with a Phenomenex Onyx™ Monolithic C18 reverse phase column (100 × 4.6 mm, 130 Å) was used to determine purity. The mobile phase comprised 0.06% TFA in water (solvent A) and 0.06% TFA in 90:10 ACN:H2O mixture (solvent B). The PC peak was eluted outside the dead zero volume time to avoid inaccurate results. The dead zero volume time was determined using potassium iodide as an external dead volume marker, with further details in the Supplementary Materials. The subsequent peaks were recorded, and K was calculated using Equation (6). (6) K=tr−t0/t0 where K is the capacity factor, tr is the retention time of the analyte, and t0 is the dead time determined using a solution of KI in the same column. At least five different isocratic ratios were used to assess each PC, and each experiment was repeated three times. LogK’ was then calculated and plotted against the concentration of ACN in the mobile phase. […] (7) LogK^′=Sφ+LogKw where S is the slope, φ is the concentration of ACN in the mobile phase, and LogKw represents the capacity factor of the compound in 100% water (Figure S49).
# Du145 (Prostate) = assay: MTT cytotoxicity assay, Du145; format: cell-based; conditions: 72 h exposure
# MCF-7 (Breast) = assay: MTT cytotoxicity assay, MCF-7; format: cell-based; conditions: 72 h exposure
# H460 (Lung) = assay: MTT cytotoxicity assay, H460; format: cell-based; conditions: 72 h exposure
# SJ-G2 (Glioblastoma) = assay: MTT cytotoxicity assay, SJ-G2; format: cell-based; conditions: 72 h exposure
# A431 (Skin) = assay: MTT cytotoxicity assay, A431; format: cell-based; conditions: 72 h exposure
Compound,GI50 (U87 (Glioblastoma)) [nM],Binding Stoichiometry (Calf-thymus DNA (ctDNA)),KF (binding constant for fluorescence) (Calf-thymus DNA (ctDNA)),KSV (Stern–Volmer quenching constant) (Calf-thymus DNA (ctDNA)),Ka (binding coefficient) (Calf-thymus DNA (ctDNA)),Kq (bimolecular quenching constant) (Calf-thymus DNA (ctDNA)),n (molar equivalents of PC at the point of intersection) (Calf-thymus DNA (ctDNA)),ΔFsat (change in fluorescence at the point of binding) (Calf-thymus DNA (ctDNA)),"GI50 (MCF10A (Breast, Normal)) [nM]",GI50 (HT29 (Colon)) [nM],GI50 (MIA (Pancreas)) [nM],GI50 (BE2-C (Neuroblastoma)) [nM],Lipophilicity [1],GI50 (Du145 (Prostate)) [nM],GI50 (MCF-7 (Breast)) [nM],GI50 (H460 (Lung)) [nM],GI50 (SJ-G2 (Glioblastoma)) [nM],GI50 (A431 (Skin)) [nM]
"N[C@H]1CCCC[C@@H]1N.[Pt+2].c1ccc(-c2ncc[nH]2)nc1 [Complex 5a, [Pt(2-(1H-Imidazol-2-yl)pyridine)(1S,2S-(+)-diaminocyclohexane)]^2+]",36 ± 9,0.80,3.16 × 10^3,2.11 × 10^3,5.89 × 10^4,0.36 × 10^3,0.87,122.4,150 ± 30,560 ± 100,430 ± 70,210 ± 40,2.50 ± 0.02,290 ± 70,150 ± 30,290 ± 50,2700 ± 460,370 ± 60
N[C@H]1CCCC[C@@H]1N.[Pt+2].c1ccc(-c2nc3ccccc3[nH]2)nc1 [Complex 6a],34 ± 3,0.84,2.94 × 10^3,2.12 × 10^3,0.66 × 10^4,0.30 × 10^3,0.71,116.7,150 ± 10,450 ± 20,300 ± 30,190 ± 20,2.42 ± 0.02,300 ± 40,160 ± 30,260 ± 40,2700 ± 290,360 ± 50
"[Pt(2-(1H-Imidazol-2-yl)pyridine)(1R,2R-(+)-diaminocyclohexane)]^2+ [Complex 5b]",50 ± 10,0.78,3.66 × 10^3,2.54 × 10^3,3.15 × 10^4,0.41 × 10^3,0.95,165.9,220 ± 30,750 ± 70,560 ± 110,300 ± 50,–,440 ± 70,300 ± 70,370 ± 50,4500 ± 600,490 ± 70
"[Pt(2-(2-pyridyl)benzimidazole)(1R,2R-(+)-diaminocyclohexane)]^2+ [Complex 6b]",7600 ± 460,0.94,2.84 × 10^3,2.07 × 10^3,7.43 × 10^4,0.30 × 10^3,0.67,113.0,17000 ± 1500,33000 ± 1200,30000 ± 6900,30000 ± 2100,2.46 ± 0.025,22000 ± 1500,8000 ± 1600,16000 ± 1200,38000 ± 5900,24000 ± 2600
"[Pt(2-pyrrolidin-2-yl pyridine)(1R,2R-(+)-diaminocyclohexane)]^2+ [Complex 4b]",43000 ± 670,1.17,5.77 × 10^3,3.85 × 10^3,1.40 × 10^4,0.74 × 10^3,1.68,121.0,45000,> 50000,43000 ± 1000,31000 ± 1200,–,> 50000,12500 ± 760,31000 ± 880,> 50000,30000 ± 4700
